# Laboratory results published in patent publication US9517993B2, “Antagonists of the toll-like receptor 1/2 complex” (THE REGENTS OF THE UNIVERSITY OF COLORADO, a body corporate, priority 2012, dated 2016).
# Entries after “also recorded” stand apart in the source; their conditions may differ.
# Legend:
# TLR7 = biological target: T1, TLR7 (Mus musculus, UniProt P58681); test: RAW 264.7 nitric oxide TLR selectivity assay (R848); assay type: cell-based; conditions: 100 nM R848
# T1 construct: RAW 264.7 Cells Nitric Oxide TLR Selectivity Assay; endogenous in cells; host or cells: RAW 264.7
# T1 sequence (P58681 27-1050): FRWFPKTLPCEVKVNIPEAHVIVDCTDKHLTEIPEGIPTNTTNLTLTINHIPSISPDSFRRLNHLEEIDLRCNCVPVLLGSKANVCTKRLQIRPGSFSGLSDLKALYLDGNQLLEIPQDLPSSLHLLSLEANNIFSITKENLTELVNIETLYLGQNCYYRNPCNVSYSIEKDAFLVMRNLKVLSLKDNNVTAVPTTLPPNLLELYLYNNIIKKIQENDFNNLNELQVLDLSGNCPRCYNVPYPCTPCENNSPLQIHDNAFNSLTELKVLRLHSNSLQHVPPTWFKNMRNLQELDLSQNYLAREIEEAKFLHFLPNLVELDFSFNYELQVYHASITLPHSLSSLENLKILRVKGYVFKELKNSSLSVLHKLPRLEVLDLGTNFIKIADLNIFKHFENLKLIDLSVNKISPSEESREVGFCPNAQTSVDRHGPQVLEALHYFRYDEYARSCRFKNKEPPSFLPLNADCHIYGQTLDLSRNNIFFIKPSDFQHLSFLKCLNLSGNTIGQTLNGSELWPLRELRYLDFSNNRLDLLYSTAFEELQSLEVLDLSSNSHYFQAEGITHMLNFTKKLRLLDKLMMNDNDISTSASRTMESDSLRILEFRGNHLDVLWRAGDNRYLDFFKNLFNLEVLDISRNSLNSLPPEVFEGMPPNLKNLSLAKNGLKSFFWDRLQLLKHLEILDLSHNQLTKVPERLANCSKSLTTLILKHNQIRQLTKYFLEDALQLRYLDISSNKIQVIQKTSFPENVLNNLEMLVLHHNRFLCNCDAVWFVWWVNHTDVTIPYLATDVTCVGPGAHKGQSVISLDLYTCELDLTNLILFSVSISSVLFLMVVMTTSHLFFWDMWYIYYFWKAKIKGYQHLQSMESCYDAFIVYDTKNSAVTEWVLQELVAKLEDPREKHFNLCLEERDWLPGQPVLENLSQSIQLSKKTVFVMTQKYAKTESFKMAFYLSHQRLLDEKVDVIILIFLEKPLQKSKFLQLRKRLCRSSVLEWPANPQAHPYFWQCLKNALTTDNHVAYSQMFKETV
# Protocol: RAW 264.7 (Mouse leukaemic monocyte macrophage cell line) cells were grown in RPMI 1640 medium, supplemented with 10% FBS, penicillin (100 U/mL) and streptomycin ([…]). RAW cells were then planted in 96-well plates at 80,000 cells per well and grown for 24 h in the media descried previously at 37° C. in a 5% CO2 humidified incubator. After 24 h, non-adherent cells and media were removed and replaced with fresh unsupplemented RPMI 1640 medium. The adherent macrophages were treated with Pam3CSK4 (CAS No. 112208-00-1; a synthetic triacylated lipopeptide (LP) that mimics the acylated amino terminus of bacterial LPs) (200 ng/mL) (Invivogen, USA), an agonist of TLR1/2, and then added different concentrates of potential inhibitor. Two rows were only treated with Pam3CSK4 as control. […] The reaction was quenched by addition of 5 μL of a 3 M aqueous NaOH solution and the plate was read on Beckman Coulter DTX880 reader (Beckman Coulter, Calif., USA) with excitation at 365 nm and emission at 450 nm. The nitrite (a stable metabolite of nitric oxide) concentration was determined from a nitrite standard curve. The inhibition rate (%) of NO release was determined using the following formula: Inhibition (%)=[Pam3CSK4(OD450) […]]/[Pam3CSK4 (OD450)−Control (OD450)]×100. The IC50 values for both inhibition and cytotoxicity were determined graphically using software Origin v7.5. […]
# TLR1/2 = biological target: T2, TLR1/2 (Mus musculus, UniProt Q9EPQ1+Q9QUN7); test: In vitro TLR1/2 inhibition assay (nitric oxide, Pam3CSK4-activated RAW 264.7 macrophages); assay type: cell-based; conditions: for TLR1/2 inhibitory activity (in words, SAR and specificity): RAW 264.7 NO assay, Pam3CSK4; for IC50: RAW 264.7 cells, Pam3CSK4 200 ng/mL, nitric oxide readout, read-out: IC50, inhibition of Pam3CSK4-induced TLR1/2 activation (NO assay)
# T2 construct: production of NO in RAW 264.7 macrophage cells; endogenous in cells; host or cells: RAW 264.7
# Protocol: To identify novel TLR1/2 complex inhibitors, a cell-based assay was employed to screen the NCI-2 diversity small-molecule library. This 1,363 compound library was chosen from the larger NCI library, which has more than 140,000 compounds, on the basis of availability, purity, and other pharmacological features, such as relative rigidity, number of rotatable bonds and chiral centers, the absence of obvious leaving groups and weakly bounded heteroatoms, etc. Screening was performed in a 96-well plate format using a previously established high-throughput nitric oxide (NO) assay. See e.g. Cheng et al., Small molecule inhibitors of the TLR3/dsRNA complex, J. Am. Chem. Soc. (2011), 133:3764-67, which is herein incorporated by reference in its entirety. Briefly, synthetic triacylated lipoprotein Pam3CSK4 was employed to selectively activate TLR1/2 signaling, resulting in the expression of inducible nitric oxide synthase (iNOS) and the production of NO in RAW 264.7 macrophage cells. NO levels were monitored as an indicator of Pam3CSK4-induced TLR1/2 activation to evaluate the compound's inhibitory activity.
# (§1) RAW 264.7 (Mouse leukaemic monocyte macrophage cell line) cells were grown in RPMI 1640 medium, supplemented with 10% FBS, penicillin (100 U/mL) and streptomycin ([…]). RAW cells were then planted in 96-well plates at 80,000 cells per well and grown for 24 h in the media descried previously at 37° C. in a 5% CO2 humidified incubator. After 24 h, non-adherent cells and media were removed and replaced with fresh unsupplemented RPMI 1640 medium. The adherent macrophages were treated with Pam3CSK4 (CAS No. 112208-00-1; a synthetic triacylated lipopeptide (LP) that mimics the acylated amino terminus of bacterial LPs) (200 ng/mL) (Invivogen, USA), an agonist of TLR1/2, and then added different concentrates of potential inhibitor. Two rows were only treated with Pam3CSK4 as control. Plates were then incubated for an additional 24 h. Following incubation 100 μL of media was removed and added to flat black 96-well microfluor plates (Thermo Scientific, MA, USA). To each well, 10 μL of 2,3-diaminonaphthalene (0.05 mg/mL in 0.62 M aqueous HCl solution) was added and incubated for 15 min in the dark. The reaction was quenched by addition of 5 μL of a 3 M aqueous NaOH solution and the plate was read on Beckman Coulter DTX880 reader (Beckman Coulter, Calif., USA) with excitation at 365 nm and emission at 450 nm. The nitrite (a stable metabolite of nitric oxide) concentration was determined from a nitrite standard curve. The inhibition rate (%) of NO release was determined using the following formula: Inhibition (%)=[Pam3CSK4(OD450) […]]/[Pam3CSK4 (OD450)−Control (OD450)]×100. The IC50 values for both inhibition and cytotoxicity were determined graphically using software Origin v7.5.
# TLR2/6 = biological target: T3, TLR2/6 (Mus musculus, UniProt Q9EPW9+Q9QUN7); test: RAW 264.7 nitric oxide TLR selectivity assay (FSL-1); assay type: cell-based; conditions: 10 ng/mL FSL-1
# T3 construct: RAW 264.7 Cells Nitric Oxide TLR Selectivity Assay; endogenous in cells; host or cells: RAW 264.7
# Protocol: as §1
# This assay was run in a similar manor as the “In Vitro TLR1/2 Inhibition Assay”. High molecule weight Poly (I:C), LPS (lipopolysaccharide), FSL-1 (Synthetic diacylated lipoprotein—TLR2/TLR6 ligand commercially available from Invivogen, USA), and R848 ([…]) were used to selectively activate TLR3, TLR4, TLR2/6 and TLR7 in place of Pam3CSK4, respectively.
# pro-inflammatory mRNA = test: In vivo ICM co-administration with Pam3CSK4, hippocampal mRNA by real time RT-PCR; conditions: 5 ng or 50 ng ICM with Pam3CSK4 40 ng; hippocampus 2 hours after injection; listed as CU-CPT22
# Protocol: In vivo testing was conducted by the administration of Pam3CSK4 and CU-CPTP22. CU-CPT22 (5 ng or 50 ng), suspended in 5 μl sterile saline or vehicle, was co-administered with the TLR2 agonist Pam3CSK4 (40 ng/4 μl) to the animal via the cisterna magna (ICM) with a 1 μl air bubble separating the two reagents. Two hours after injection, the animal's hippocampus was collected for pro-inflammatory mRNA analysis using real time RT-PCR procedures. […] (N=8 for each group).
# T2 sequence (Q9EPQ1 26-795): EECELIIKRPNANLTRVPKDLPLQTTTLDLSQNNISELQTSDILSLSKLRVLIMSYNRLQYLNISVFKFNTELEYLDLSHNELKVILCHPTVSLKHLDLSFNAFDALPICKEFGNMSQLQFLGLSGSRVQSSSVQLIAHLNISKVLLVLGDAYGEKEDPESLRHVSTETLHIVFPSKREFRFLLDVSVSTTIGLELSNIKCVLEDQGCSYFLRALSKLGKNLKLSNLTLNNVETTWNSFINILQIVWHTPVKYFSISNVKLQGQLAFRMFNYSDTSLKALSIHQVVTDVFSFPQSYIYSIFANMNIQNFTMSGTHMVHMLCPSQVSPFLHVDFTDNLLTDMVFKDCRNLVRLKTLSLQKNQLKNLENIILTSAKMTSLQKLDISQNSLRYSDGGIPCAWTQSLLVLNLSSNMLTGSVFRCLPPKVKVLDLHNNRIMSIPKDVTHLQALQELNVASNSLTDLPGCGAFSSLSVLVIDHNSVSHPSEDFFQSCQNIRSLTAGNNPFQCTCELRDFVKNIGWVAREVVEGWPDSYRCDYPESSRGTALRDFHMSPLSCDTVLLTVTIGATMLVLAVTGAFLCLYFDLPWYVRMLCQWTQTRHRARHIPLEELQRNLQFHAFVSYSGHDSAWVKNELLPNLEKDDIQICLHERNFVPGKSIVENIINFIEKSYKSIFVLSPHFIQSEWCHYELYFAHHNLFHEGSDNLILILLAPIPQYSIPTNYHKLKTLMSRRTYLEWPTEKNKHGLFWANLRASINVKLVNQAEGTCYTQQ
# T2 sequence (Q9QUN7 25-784): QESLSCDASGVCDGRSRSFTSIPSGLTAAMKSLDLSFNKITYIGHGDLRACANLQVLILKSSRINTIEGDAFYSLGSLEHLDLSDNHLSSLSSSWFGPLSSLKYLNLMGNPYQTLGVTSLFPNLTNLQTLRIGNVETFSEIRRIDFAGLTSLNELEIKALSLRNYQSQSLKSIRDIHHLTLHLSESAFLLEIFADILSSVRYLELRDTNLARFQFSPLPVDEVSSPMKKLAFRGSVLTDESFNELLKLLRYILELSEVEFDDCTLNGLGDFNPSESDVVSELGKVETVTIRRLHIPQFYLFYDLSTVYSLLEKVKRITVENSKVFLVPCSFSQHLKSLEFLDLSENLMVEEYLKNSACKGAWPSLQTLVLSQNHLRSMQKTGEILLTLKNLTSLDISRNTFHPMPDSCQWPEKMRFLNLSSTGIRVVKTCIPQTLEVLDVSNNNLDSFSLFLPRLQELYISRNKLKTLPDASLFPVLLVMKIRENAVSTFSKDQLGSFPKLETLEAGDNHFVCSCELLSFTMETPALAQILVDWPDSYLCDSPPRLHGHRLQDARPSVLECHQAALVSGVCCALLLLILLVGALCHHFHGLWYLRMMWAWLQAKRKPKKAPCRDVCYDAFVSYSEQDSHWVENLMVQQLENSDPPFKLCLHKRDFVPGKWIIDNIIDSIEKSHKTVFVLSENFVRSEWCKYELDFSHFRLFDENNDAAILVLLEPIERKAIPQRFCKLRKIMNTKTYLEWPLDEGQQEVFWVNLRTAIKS
# T3 sequence (Q9QUN7 25-784): as above
# T3 sequence (Q9EPW9 28-795): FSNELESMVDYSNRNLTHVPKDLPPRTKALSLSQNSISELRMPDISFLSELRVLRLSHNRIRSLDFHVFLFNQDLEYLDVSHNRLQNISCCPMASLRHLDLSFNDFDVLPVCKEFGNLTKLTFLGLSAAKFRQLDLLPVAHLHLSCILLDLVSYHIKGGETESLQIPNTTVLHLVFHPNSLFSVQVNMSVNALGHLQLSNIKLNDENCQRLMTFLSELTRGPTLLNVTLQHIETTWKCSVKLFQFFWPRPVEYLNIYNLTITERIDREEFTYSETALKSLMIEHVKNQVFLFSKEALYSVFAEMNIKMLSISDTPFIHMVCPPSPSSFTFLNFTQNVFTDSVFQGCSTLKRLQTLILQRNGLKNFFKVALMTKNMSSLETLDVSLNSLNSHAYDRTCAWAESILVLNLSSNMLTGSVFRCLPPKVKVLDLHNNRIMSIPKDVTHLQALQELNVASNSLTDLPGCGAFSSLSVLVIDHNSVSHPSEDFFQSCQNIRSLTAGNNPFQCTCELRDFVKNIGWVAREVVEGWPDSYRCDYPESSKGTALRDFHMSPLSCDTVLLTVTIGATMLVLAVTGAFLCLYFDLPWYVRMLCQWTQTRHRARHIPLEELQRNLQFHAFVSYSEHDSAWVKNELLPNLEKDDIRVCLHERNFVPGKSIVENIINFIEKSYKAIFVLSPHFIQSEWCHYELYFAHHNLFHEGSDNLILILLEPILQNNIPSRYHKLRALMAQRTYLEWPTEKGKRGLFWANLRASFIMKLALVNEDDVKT
inhibition of TLR7 signaling (TLR7; 3 μM compound),"TLR1/2 inhibitory activity (in words, SAR and specificity) (TLR1/2)",IC50 (TLR1/2) [µM],inhibition of TLR2/6 signaling (TLR2/6; 3 μM compound),inhibition of TLR7 signaling (TLR7; 0.5 μM compound),"TLR1/2 inhibitory activity (in words, SAR and specificity) (TLR1/2; listed as Compound 17)",inhibition of TLR2/6 signaling (TLR2/6; 0.5 μM compound),"inhibition of TLR2/6 signaling (TLR2/6; 0.5 μM compound, listed as Compound 17)",Compound,IL-6 / M-6 mRNA expression (FIG. 10c) (pro-inflammatory mRNA),TNF-α mRNA expression (FIG. 10b) (pro-inflammatory mRNA),mRNA expression (FIG. 10a) (pro-inflammatory mRNA)
no other homologous TLRs,specifically inhibited TLR1/2 signaling,2.45 ± 0.25,no other homologous TLRs,–,–,–,–,"O=c1c(O)cccc2cc(O)c(O)c(O)c12 [NCI35676, purpurogallin, reference compound]",–,–,–
–,highest inhibitory activity,0.58 ± 0.09,–,without affecting other TLRs,inhibit TLR1/2 signaling,no significant inhibition,without affecting other TLRs,"CCCCCCOC(=O)c1cc(O)c(=O)c2c(O)c(O)c(OC)cc2c1 [compound 17, Hexyl 3,4,6-trihydroxy-2-methoxy-5-oxo-5H-benzo[7]annulene-8-carboxylate]",strongly inhibits; also recorded: strong inhibition,strongly inhibits; also recorded: strong inhibition,strongly inhibits; also recorded: strong inhibition
